Assay results taken from a melting point compilation (Tetko et al.; mined from patent text by program, amines drawn as free bases though some values may be those of a salt).

`CCN[C@H]1CCC[C@H](Oc2ccc3[nH]ncc3c2)C1` (relative stereo) gave a melting point of 116 to 118 °C.
`CCC(C)(C)NC(=O)C(=O)C(C)(C)C` showed a melting point of 36 °C.
For `CCC1=C(C(=O)Nc2ccc(Cl)c(C(=O)OC(C)C)c2)SCCO1`, the melting point was 90 to 92 °C.
With `COC(=O)c1ccc(NC(=O)C(F)(F)F)c(C(=O)OC)c1` the melting point was 239 °C.
For `Cc1c(CC(=O)O)cc2ccc(F)cc2c1Cc1ccc(S(=O)(=O)C(F)(F)F)cc1`, the melting point was 200 to 201 °C.
With `NC(=O)c1cccc2c3c(cc([N+](=O)[O-])c12)N(C(=O)C(F)(F)F)CC3CCl` (stereo unspecified) the melting point was 272 to 277 °C.
For `COc1cc(Br)cc2c1OCCC2`, the melting point was 67 °C.
`CCOC(=O)c1cn2c3c(cc(CN4CCOCC4)cc3c1=O)OC(c1ccccc1)C2` (stereo unspecified) gave a melting point of 213 to 215 °C.
In the case of `NC(=O)C1C2C=CC(C2)C1Nc1c(Cl)cnc2[nH]c(-c3ccc4c(c3)CCC3(CCNCC3)O4)nc12` (stereo unspecified), the melting point is reported as > 250 °C.
Compound `CC(=O)C1(Nc2ccc(C)cc2)CCN(CCc2ccccc2)CC1` has a melting point of 134 °C.
Compound `Cn1ccnc1N1CCN(CC(=O)c2ccc(NS(C)(=O)=O)cc2)CC1` has a melting point of 164 to 165 °C.
Work on `CC(C)CC1CNCCNCCNCCNCCN1` (stereo unspecified) yielded a melting point of 70 to 76 °C.
For `N#Cc1ccc(O)c(I)c1`, the melting point was 144 to 146 °C.
Work on `CS(=O)(=O)Nc1ccc(OC2SCC(O)C(O)C2O)cn1` (stereo unspecified) yielded a melting point of 201 to 204 °C.
Compound `CCOP(=O)(/C=C/c1cn(-c2ccccc2)nc1OCc1ccc(OCc2nc(-c3ccco3)oc2C)c(C(=O)OC)c1)OCC` has a melting point of 92 to 93 °C.
Compound `CC(C)(C)C(=O)c1ccc(C(=O)N[C@@H](Cc2ccccc2)C(N)=O)cc1` has a melting point of 120 to 123 °C.
`CCCc1nn(C)c2c(=O)[nH]c(Cc3ccc(N(CC)C(C)=O)cc3)nc12` showed a melting point of 149 to 151 °C.
`Cc1c(C)c2c(c(C)c1NCc1ccccc1)C(=O)C(C)(C)O2` showed a melting point of 98 to 99 °C.
With `Cc1nn(-c2cccc(C(F)(F)F)c2)c(C)c1CC(=O)O` the melting point was 83 to 85 °C.
`CC(C)(C)OC(=O)NC(Cc1cc(C(=O)c2cc(C(F)(F)F)cc(C(F)(F)F)c2)ccc1N)C(=O)OC(C)(C)C` (stereo unspecified) gave a melting point of 134 to 135 °C.
`CC(C)(C)OC(=O)N1CCN(c2nc(N)c3nc(-c4ccccc4)c(N)nc3n2)CC1` gave a melting point of 240 to 242 °C.
Compound `CN1CCN(c2cccc3c2C[C@H](NC(=O)c2ccc(N4CCOCC4)cc2)CO3)CC1` has a melting point of 210 to 212 °C.
`CC1C=CC(Oc2ccc(C(=O)O)o2)=C2N=C3CCCCC3=C21` (stereo unspecified) gave a melting point of 150 to 152 °C.
With `CNC(=O)N(C)c1ccc(Cl)c(COc2cccn3c(Br)c(C)nc23)c1Cl` the melting point was 192 to 193 °C.
`CC(C)(Br)C(=O)ON1C(=O)CCC1=O` showed a melting point of 72 to 74 °C.
`CCOC(=O)c1cnc(-c2cc(N)ccc2OCC)[nH]c1=O` showed a melting point of 107 to 110 °C.
`Nc1nc2ccccc2n1-c1cccc(-c2ccc3[nH]ccc3c2)c1` gave a melting point of 120 to 123 °C.
`Cc1nc2c(N[C@@H]3c4ccccc4C[C@H]3O)cc(C(=O)O)cn2c1C` (relative stereo) gave a melting point of 246 to 249 °C.
For `CCCCOCC1OC(n2c(Cl)nc3cc(Cl)c(Cl)cc32)C(O)C1O` (stereo unspecified), the melting point was 70 to 72 °C.
In the case of `O=C(Nc1ccc2ccc(Oc3ccccc3)nc2n1)c1cccs1`, the melting point is reported as 176 °C.
For `COc1ccc(-c2cnc3cc4cnn(C[C@@H]5COC(C)(C)O5)c4cc3n2)cc1F`, the melting point was 145 to 151 °C.
For `CCCCCCCCCCOc1ccc(-c2ccc(OCCCCCCCCCC)c(OCCCCCCCCCC)c2)cc1OCCCCCCCCCC`, the melting point was 85 to 86 °C.
In the case of `C[C@H](Cc1ccc(-c2cc(F)c(C#N)c(F)c2)cc1)c1ccccc1`, the melting point is reported as 60.7 to 62.2 °C.
In the case of `O=C1Cc2c([nH]c3ccc(I)cc23)-c2ncccc2N1`, the melting point is reported as > 330 °C.
`COC(=O)CCCc1cc2nc(Cl)ccc2n1S(=O)(=O)c1ccc2nc(NC(C)=O)sc2c1` gave a melting point of 274 °C.
Work on `COc1ccc(C(=O)c2c(N)sc3c2CCCC3)c2ccccc12` yielded a melting point of 227 to 229 °C.
For `CN(C)C(=O)CCC(=NNC(N)=S)c1ccccc1`, the melting point was 173 to 175 °C.
`C=CCSC(=NC(=O)OC)NC(=O)Nc1ccc(C)cc1` gave a melting point of 103 to 105 °C.
Compound `COC(=O)COc1ccc2cc(-c3cnc(-c4cn(Cc5ccccc5)c5ccccc45)o3)ccc2c1` has a melting point of 204 to 207 °C.
Compound `O=S1(=O)CC(c2ccc(F)cc2)CN1` (stereo unspecified) has a melting point of 155 °C.
With `CC(C)C1(C)C(=O)N=C2c3ccccc3C(=O)N21` (stereo unspecified) the melting point was 98 to 100 °C.
For `O=C(O)[C@H]1C[C@H](NC(=O)N2CCc3ccccc32)c2c(Cl)cc(Cl)cc2N1` (relative stereo), the melting point was 251 to 252 °C.
`COc1cc(OC)c(-c2cccs2)cc1/C=C/C(=O)c1ccccc1C(=O)O` gave a melting point of 196 to 198 °C.
For `BrC=C(c1ccccc1)c1ccccc1`, the melting point was 45 °C.
For `COc1ccc(NS(=O)(=O)c2ccccc2Br)cc1N(C)C1CCN(C)CC1`, the melting point was 119 to 121 °C.
For `CCCCc1nc2cccnc2n1-c1ccc(OCc2ccc(OC)c(OC3CC4CCC3C4)c2)cc1` (stereo unspecified), the melting point was 130 to 132 °C.
In the case of `COc1ccccc1-n1c(=O)[nH]c2c(C(N)=O)nc(-c3ccc(C(N)=O)cc3)nc21`, the melting point is reported as > 350 °C.
In the case of `Cc1ccccc1-c1c(C(=O)O)oc2ccc(Cl)cc12`, the melting point is reported as 212 to 214 °C.
In the case of `CC(=CCCC(C)C1CCC2(C)C3=CCC4C(C)(CCC5(OCCO5)C4(C)C)C3=CCC12C)CO` (stereo unspecified), the melting point is reported as 165 to 168 °C.
For `O=C(N[C@@H](Cc1ccc(OCCc2coc(-c3ccccc3)n2)cc1)C(=O)O)c1ccc(Cl)cc1`, the melting point was 158 to 161 °C.
Work on `CC1(C=O)CC1(c1ccc(F)cc1)c1ccc(F)cc1` (stereo unspecified) yielded a melting point of 110 to 113 °C.
For `Cc1cc(-c2cccc(C(F)(F)F)c2)c2ncc(C(F)(F)F)nc2c1`, the melting point was 93 to 94 °C.
`O=C(O)c1cn2c(ccc3ccc(Cl)cc32)n1` showed a melting point of 288 to 289 °C.
With `Cc1oc(-c2ccccc2)nc1COc1ccccc1COc1ccccc1CC(=O)O` the melting point was 145 to 146 °C.
Compound `Nc1ccccc1NC(=O)c1cc2cc(OCc3ccccn3)ccc2s1` has a melting point of 205 to 207 °C.
Compound `CCc1noc(C)c1-c1[nH]c2ccccc2c1C(O)CN(C)C` (stereo unspecified) has a melting point of 178 to 180 °C.
For `O=C(O)c1cnn2c(C(F)(F)F)cc(-c3ccc(C(F)(F)F)c(F)c3)nc12`, the melting point was 212 °C.
In the case of `COCCCOc1ccc(CCC(=O)O)c(Oc2ncc(C(F)(F)F)cc2Cl)c1`, the melting point is reported as 99.1 to 99.2 °C.
With `CC1SC(=O)NN=C1c1ccc2c(c1)C(=NNC(=O)c1cccs1)C(=O)N2` (stereo unspecified) the melting point was > 300 °C.
Work on `CC(C)(C)c1cc(C(=O)OCCN(CCO)C(=O)c2cc(C(C)(C)C)c(O)c(C(C)(C)C)c2)cc(C(C)(C)C)c1O` yielded a melting point of 174 to 178 °C.
In the case of `OC1(c2ccncc2)CCc2ccccc21` (stereo unspecified), the melting point is reported as 151 °C.
`CN1CCN(c2nc3ccc(Br)c4c3n2CCC4)CC1` gave a melting point of 132 to 133 °C.
`O=C(O)c1csc2c(=O)cc(C(F)(F)F)oc12` gave a melting point of 249 to 251 °C.
`COc1c(OC)c(OC)c2c(=O)cc(-c3ccc(OCc4ccccc4)cc3)oc2c1OC` gave a melting point of 132 to 134 °C.
For `CC(C)(C)c1ccc(C(C)(C)C(=O)Oc2ccc(SCCCC(=O)O)cc2)cc1`, the melting point was 86 to 87 °C.
`O=[N+]([O-])c1ccc2nc(-c3ccc4c(c3)OCCO4)ncc2c1` showed a melting point of 263 to 265 °C.
Compound `Cn1nc2c(-c3ccc(Cl)cc3Cl)cccc2c1CCC#N` has a melting point of 192 to 193 °C.
`CCCOc1ccc(S(=O)(=O)N2CC[C@@H](N(C)C)C2)cc1-c1nc2cc3ncn(Cc4ccccc4)c3cc2c(=O)[nH]1` gave a melting point of 190 °C.
For `Brc1cc(Br)c(OC2C=CCC2)c(I)c1` (stereo unspecified), the melting point was 57 to 58 °C.
`CCOC(=O)COc1ccc(C=CC(=O)O)cc1` gave a melting point of 154 °C.
In the case of `CN1C(=S)[C@H](NC(=O)OCc2ccccc2)N=C(c2ccccc2)c2ccccc21`, the melting point is reported as 128 to 131 °C.
`O=S1(=O)N(CCCN2CC=C(c3c[nH]c4ccc(F)cc34)CC2)c2cccc3c2N1CCC3` gave a melting point of 178 °C.
With `CNC1(CC2CCCCC2)C(=O)Nc2ccc(Cl)cc21` (stereo unspecified) the melting point was 168 to 169 °C.
`CC[C@H](COC)n1cc(Br)nc(N2CCc3cc(OC)cc(C)c32)c1=O` gave a melting point of 116 to 118 °C.
In the case of `CCOc1nsnc1S(C)(=O)=O`, the melting point is reported as 94 to 95 °C.
Compound `CC(=O)c1cc(Cl)ccc1NS(=O)(=O)C(F)(F)F` has a melting point of 36 to 38 °C.
With `CC(Cc1ccc(O)cc1)NCC(O)c1cc2ccccc2o1` (stereo unspecified) the melting point was 135 to 138 °C.
`COCc1ccc2nc(SCCN3CCN(CC(=O)Nc4c(C(C)C)cccc4C(C)C)CC3)oc2c1COC` gave a melting point of 96 to 97 °C.
In the case of `COC(=O)c1cncn1C1CCCc2ccccc21` (stereo unspecified), the melting point is reported as 63 °C.
`CCOC(=O)c1cccc(C2COc3cc(O)c(O)cc3C2)c1` (stereo unspecified) showed a melting point of 131 to 133 °C.
For `CS(=O)(=O)Nn1c(=O)[nH]c2cc(C(F)(F)F)c(CCCO)cc2c1=O`, the melting point was 243 to 247 °C.
For `O=C(c1ccc(CBr)cc1)c1ccc(CBr)cc1`, the melting point was 118 to 119 °C.
In the case of `O=C1CN2C(=O)C(c3ccccc3)c3cc(Cl)cc(c32)N1` (stereo unspecified), the melting point is reported as 156 to 159 °C.
`CC(C)(C)OC(=O)N1CCN(C(=O)c2cc3ccccc3[nH]2)CC1` gave a melting point of 213 to 214 °C.
`CN(C)CCc1c[nH]c2ccc([N+](=O)[O-])cc12` showed a melting point of 132 to 135 °C.
`O=C1OC(=O)c2c1cccc2N1C(=O)CCC1=O` showed a melting point of 202 to 205 °C.
`CN1CCC(c2c[nH]c3ccc(C(=O)c4ccccn4)cc23)CC1` showed a melting point of 90 °C.
In the case of `COc1ccc(Cc2nc3c(cnn3C(CCCc3ccccc3)C(C)O)c(=O)[nH]2)cc1` (stereo unspecified), the melting point is reported as 41 °C.
`COc1cc(N)cc2c1nc(C(F)F)n2-c1nc(N2CCOCC2)nc(N2CCN(S(C)(=O)=O)CC2)n1` gave a melting point of 280 to 283 °C.
Compound `O=C1CN(c2cccc(OCc3ccc(F)cc3)c2)NC(=O)N1` has a melting point of 73 to 75 °C.
`c1ccc(N(Cc2cccc3ccccc23)c2ccccc2)cc1` gave a melting point of 170 to 172 °C.
With `O=C(O)C(=O)c1ccc(OC/C=C/c2ccc(F)cc2)cc1` the melting point was 132 to 133 °C.
`Cc1nc2cnccc2n1-c1ccc(Cn2c(=O)oc3ccccc32)cc1` showed a melting point of 84 to 87 °C.
Work on `Nc1cccc(Cn2c(-c3ccccc3)ccc2-c2ccccc2)n1` yielded a melting point of 143 to 144 °C.
For `CC(C)c1nc(C(C)C)c(CCCCO)c(-c2ccc(F)cc2)c1CO`, the melting point was 135 to 137 °C.
Work on `C=CCOC(=O)c1c(C)nc2c(cnn2CCOCC)c1N` yielded a melting point of 38 to 40 °C.
With `O=C(O)Cc1ccc2c(c1)C(=O)CC2` the melting point was 133 to 135 °C.
With `O=C(O)c1ccc(C#Cc2ccccc2)cc1` the melting point was 224 to 225 °C.
Work on `COCOc1cc(C=O)c2nc3cccc(OCOC)c3nc2c1` yielded a melting point of 148 to 150 °C.
In the case of `CN1CC(CNN)CC2c3cccc4[nH]cc(c34)CC21` (stereo unspecified), the melting point is reported as 171 to 172 °C.
`COc1ccc(F)cc1OCCCl` gave a melting point of 35 to 38 °C.
